Active and inactive are the calls of the source.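 The calls were made as follows: active = at least 50% inhibition of LYPLA1 or LYPLA2 at 300 nM, with no off-target enzyme hit at any dose; inactive = under 50% inhibition on both enzymes, or any off-target hit.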
Assays:
[1] = target: Acyl-protein thioesterase 1 (Homo sapiens) (UniProt O75608); assay: LYPLA1 inhibitor selectivity over serine hydrolases, late-stage follow-up, selectivity assay for LYPLA1 inhibitor project, cell lysate, competitive ABPP, HEK293T proteome, set 2 (AID 652018); settings: competitive ABPP FP-PEG-Rh gel, stronger effect = higher value;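 also: 0% = DMSO-only band intensity and 100% = blank gel background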
Acyl-protein thioesterase 1 (Homo sapiens), sequence (O75608 whole entry, looked up): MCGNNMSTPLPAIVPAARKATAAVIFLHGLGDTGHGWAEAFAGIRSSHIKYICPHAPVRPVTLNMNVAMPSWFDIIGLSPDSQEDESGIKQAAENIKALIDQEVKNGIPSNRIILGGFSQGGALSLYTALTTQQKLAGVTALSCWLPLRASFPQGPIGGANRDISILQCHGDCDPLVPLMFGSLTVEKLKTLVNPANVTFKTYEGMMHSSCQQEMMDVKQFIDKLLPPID

[2] = target: Acyl-protein thioesterase 2 (Homo sapiens) (UniProt O95372); assay: as above; settings: competitive ABPP FP-PEG-Rh gel, stronger effect = higher value
Acyl-protein thioesterase 2 (Homo sapiens), sequence (O95372 whole entry, looked up): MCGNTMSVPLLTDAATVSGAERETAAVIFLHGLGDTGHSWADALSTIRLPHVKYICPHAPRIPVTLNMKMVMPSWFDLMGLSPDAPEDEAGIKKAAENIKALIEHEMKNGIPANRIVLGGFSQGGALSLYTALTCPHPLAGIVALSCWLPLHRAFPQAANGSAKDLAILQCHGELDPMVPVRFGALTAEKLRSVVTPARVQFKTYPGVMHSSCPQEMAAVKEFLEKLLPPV

Structure (SMILES)	inhibition ([1]; LYPLA1, at 10 µM)	inhibition ([1]; LYPLA1, inhibition, at 0.3 µM)	inhibition ([1]; LYPLA1, inhibition, at 1 µM)	inhibition ([2]; LYPLA2, at 10 µM)	inhibition ([2]; LYPLA2, inhibition, at 0.3 µM)	inhibition ([2]; LYPLA2, inhibition, at 1 µM)
O=C(N1CCN(c2ccc(Br)cc2)CC1)n1ncc(C(O)(c2ccccc2)c2ccccc2)n1	100% (inactive)	40%	90%	80% (inactive)	20%	30%
O=C(N1CCN(c2ccc(Cl)c(Cl)c2)CC1)n1ncc(C(O)(c2ccccc2)c2ccccc2)n1	80% (inactive)	30%	40%	30% (inactive)	20%	30%
COc1ccc(N2CCN(C(=O)n3nccn3)CC2)cc1	95% (inactive)	20%	80%	100% (inactive)	10%	60%
COc1ccc(N2CCN(C(=O)n3ccnn3)CC2)cc1	90% (inactive)	20%	50%	85% (inactive)	10%	30%
COc1ccc(N2CCN(C(=O)n3cncn3)CC2)cc1	95% (inactive)	20%	75%	95% (inactive)	10%	30%
COc1ccc(N2CCN(C(=O)n3ncc(C(O)(c4ccccc4)c4ccccc4)n3)CC2)cc1	95%	95%	95%	100%	75%	100%
COc1ccc(N2CCN(C(=O)n3cc(C(O)(c4ccccc4)c4ccccc4)nn3)CC2)cc1	95%	85%	95%	100% (inactive)	20%	95%
COc1ccc(N2CCN(C(=O)n3ncc(-c4ccccc4)n3)CC2)cc1	30% (inactive)	20%	30%	30% (inactive)	10%	30%
COc1ccc(N2CCN(C(=O)n3ncc(-c4ccc(OC(F)(F)F)cc4)n3)CC2)cc1	20% (inactive)	10%	10%	20% (inactive)	10%	10%
COc1ccc(N2CCN(C(=O)n3nc(Br)nc3Br)CC2)cc1	95% (inactive)	20%	60%	95% (inactive)	10%	30%
COc1ccc(N2CCN(C(=O)n3nc(Br)c(Br)n3)CC2)cc1	95%	85%	95%	100%	50%	80%
COc1ccc(N2CCN(C(=O)n3cc(-c4ccc(OC(F)(F)F)cc4)nn3)CC2)cc1	80% (inactive)	20%	20%	60% (inactive)	10%	10%

The next lines start with the values.

inhibition ([1]; LYPLA1, at 10 µM)	inhibition ([1]; LYPLA1, inhibition, at 0.3 µM)	inhibition ([1]; LYPLA1, inhibition, at 1 µM)	inhibition ([2]; LYPLA2, at 10 µM)	inhibition ([2]; LYPLA2, inhibition, at 0.3 µM)	inhibition ([2]; LYPLA2, inhibition, at 1 µM)	Structure (SMILES)
30% (inactive)	30%	30%	30% (inactive)	30%	30%	O=C(CN1CCN(C(=O)n2cc(-c3ccc(-c4ccccc4)cc3)nn2)CC1)Nc1cc(C(F)(F)F)ccc1Cl
60% (inactive)	30%	30%	30% (inactive)	30%	30%	O=C(CN1CCN(C(=O)n2cc(-c3ccc(OC(F)(F)F)cc3)nn2)CC1)Nc1cc(C(F)(F)F)ccc1Cl
30% (inactive)	30%	30%	30% (inactive)	30%	30%	O=C(CN1CCN(C(=O)n2cncn2)CC1)Nc1cc(C(F)(F)F)ccc1Cl
95%	80%	90%	100%	60%	85%	O=C(CN1CCN(C(=O)n2cc(C(O)(c3ccccc3)c3ccccc3)nn2)CC1)Nc1cc(C(F)(F)F)ccc1Cl
95% (inactive)	30%	60%	95% (inactive)	30%	40%	O=C(CN1CCN(C(=O)n2nccn2)CC1)Nc1cc(C(F)(F)F)ccc1Cl
95%	95%	95%	100%	100%	100%	O=C(CN1CCN(C(=O)n2ncc(C(O)(c3ccccc3)c3ccccc3)n2)CC1)Nc1cc(C(F)(F)F)ccc1Cl
95%	90%	90%	100%	85%	100%	O=C(CN1CCN(C(=O)n2nc(Br)c(Br)n2)CC1)Nc1cc(C(F)(F)F)ccc1Cl
95% (inactive)	45%	85%	100% (inactive)	40%	75%	O=C(CN1CCN(C(=O)n2nc(Br)nc2Br)CC1)Nc1cc(C(F)(F)F)ccc1Cl
90% (inactive)	30%	30%	95% (inactive)	30%	30%	O=C(CN1CCN(C(=O)n2ncc(-c3ccc(OC(F)(F)F)cc3)n2)CC1)Nc1cc(C(F)(F)F)ccc1Cl
80%	70%	70%	75%	50%	40%	O=C(CN1CCN(C(=O)n2ncc(-c3ccc(Br)cc3)n2)CC1)Nc1cc(C(F)(F)F)ccc1Cl
30% (inactive)	30%	30%	30% (inactive)	30%	30%	O=C(CN1CCN(C(=O)n2ncc(-c3ccc(-c4ccccc4)cc3)n2)CC1)Nc1cc(C(F)(F)F)ccc1Cl

— PubChem BioAssay AID652018 (The Scripps Research Institute Molecular Screening Center, 2013)
